In US20250275991A1, “ORAL COMPLEMENT FACTOR D INHIBITORS” (BioCryst Pharmaceuticals, Inc, priority 2019, published 2025):
pIC50: −log10 of the molar value.

Biological target: Factor D (Homo sapiens, UniProt P00746)
Assay: Factor D esterolytic assay
Assay type: biochemical
Settings: substrate Z-Lys-SBzl 1.29 mM, 100 mM HEPES, 500 mM NaCl, pH 7.5, 10% DMSO, tested a minimum of three times
Experimental: The IC50 value of a compound (i.e., the concentration of the compound that inhibits 50% of the enzymatic activity) was calculated according to the procedure reported in U.S. Pat. No. 6,653,340 B1, e.g., column 74 (incorporated by reference).
Specifically, the compounds were dissolved in a stock solution of DMSO at 10.0 or 100 mM. A portion of this stock solution was added to assay buffer in a final volume of 50 μL. Controls included buffer alone and enzyme solutions to which DMSO was added. Substrate was added to the reaction wells immediately or after incubation at room temperature. The reaction rates were measured spectrophotometrically by the generation of product at 405 nm for 600 sec. Background absorbance at 690 nm was measured and subtracted from the absorbance at 405 nm for each well.
The reaction rate for enzyme alone was compared to the rate of enzyme in the presence of inhibitor and the percent inhibition was calculated as shown below: […]
An established esterolytic assay for the measurement of Factor D activity and inhibition of Factor D activity was used (Kam, C. M.; McRae, B. J.; Harper, J. W.; Niemann, M. A.; Volanakis, J. E.; Powers, J. C. Human complement proteins D, C2, and B Active site mapping with peptide thioester substrates. J Biol. Chem. 1987, 262, 3444-3451). For this assay Z-Lys-SBzl, 1.29 mM (Kim, S.; Narayana, S. V. L; Volanakis, J. E. Mutational analysis of the substrate binding site of human complement Factor D. Biochemistry. 1994, 33, 14393-14399.) was used as the substrate for Factor D ([…]). Hydrolysis of this compound by Factor D liberated a free sulfhydryl group which is then reacted with 5,5′-dithiobis(2nitrobenzoic acid) producing an intense yellow color (Habeeb, A. F. S. A. Reaction of protein sulfhydryl groups with Ellman's Reagent. Methods in Enzymol. 1976, 25, 457-464). The assays were performed in 96 well microtiter plates and rates of hydrolysis were monitored at 405 nm on a Biotek Synergy H1 plate reader. Hydrolysis rates were reported as change in mOD/min. The assay was conducted in 100 mM HEPES, 500 mM NaCl, pH 7.5 containing 10% DMSO in a final volume of 50 μL per well.
An IC50, a compound concentration which inhibits 50% of the enzymatic activity, was calculated. Compounds in the examples were tested a minimum of three times.

Sequence of Factor D (P00746 26-253): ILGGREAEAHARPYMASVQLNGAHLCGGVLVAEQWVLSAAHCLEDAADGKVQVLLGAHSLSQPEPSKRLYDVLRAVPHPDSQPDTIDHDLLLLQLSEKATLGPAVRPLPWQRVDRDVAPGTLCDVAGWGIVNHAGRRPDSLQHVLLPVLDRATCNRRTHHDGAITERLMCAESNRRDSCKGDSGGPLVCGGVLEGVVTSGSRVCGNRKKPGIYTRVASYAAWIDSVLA

SMILES	pIC50
NCc1cccc(-c2cc(COc3ccc(F)cc3CC(=O)O)cc3cc(F)oc23)c1F [Compound 18c, 2-(2-((7-(3-(aminomethyl)-2-fluorophenyl)-2-fluorobenzofuran-5-yl)methoxy)-5-fluorophenyl)acetic acid]	> 6.00
COC(=O)Nc1ccc(CC(=O)O)c(OCc2cc(-c3cccc(CN)c3)c3occc3c2)c1 [Compound 19i, 2-(2-((7-(3-(aminomethyl)phenyl)benzofuran-5-yl)methoxy)-4-((methoxycarbonyl)amino)phenyl)acetic acid]	> 6.00
CC(C)OC(=O)Nc1ccc(CC(=O)O)c(OCc2cc(-c3cccc(CN)c3)c3occc3c2)c1 [Compound 20h, 2-(2-((7-(3-(aminomethyl)phenyl)benzofuran-5-yl)methoxy)-4-((isopropoxycarbonyl)amino)phenyl)acetic acid]	> 6.00
CCNCc1cccc(-c2cc(COc3ccccc3CC(=O)O)cc3ccoc23)c1 [Compound 21c, 2-(2-((7-(3-((ethylamino)methyl)phenyl)benzofuran-5-yl)methoxy)phenyl)acetic acid]	> 6.00
Cc1ccc(CC(=O)O)c(OCc2cc(-c3ccnc(CN)c3)c3occc3c2)c1C [Compound 22h, 2-(2-((7-(2-(aminomethyl)pyridin-4-yl)benzofuran-5-yl)methoxy)-3,4-dimethylphenyl)acetic acid]	> 6.00
CC(=O)OCc1cc2cc(COc3ccccc3CC(=O)O)cc(-c3cccc(CN)c3)c2o1 [Compound 23h, 2-(2-((2-(acetoxymethyl)-7-(3-(aminomethyl)phenyl)benzofuran-5-yl)methoxy)phenyl)acetic acid]	> 6.00
CC(C)C(N)C(=O)OCc1cc2cc(COc3ccccc3CC(=O)O)cc(-c3cccc(CN)c3)c2o1 (centres unmarked) [Compound 24b, 2-(2-((2-(((2-amino-3-methylbutanoyl)oxy)methyl)-7-(3-(aminomethyl)phenyl)benzofuran-5-yl)methoxy)phenyl)acetic acid]	> 6.00
CCOC(=O)NCc1cc2cc(COc3ccccc3CC(=O)O)cc(-c3cccc(CN)c3)c2o1 [Compound 25h, 2-(2-((7-(3-(aminomethyl)phenyl)-2-(((ethoxycarbonyl)amino)methyl)benzofuran-5-yl)methoxy)phenyl)acetic acid]	> 6.00
CCCCCCC(=O)NCc1ccc(CC(=O)O)c(OCc2cc(-c3cccc(CN)c3)c3occc3c2)c1 [Compound 26f, 2-(2-((7-(3-(aminomethyl)phenyl)benzofuran-5-yl)methoxy)-4-(heptanamidomethyl)phenyl)acetic acid]	> 6.00
CC(C)OC(=O)NCc1ccc(CC(=O)O)c(OCc2cc(-c3cccc(CN)c3)c3occc3c2)c1 [Compound 27c, 2-(2-((7-(3-(aminomethyl)phenyl)benzofuran-5-yl)methoxy)-4-((isopropoxycarbonylamino)methyl)phenyl)acetic acid]	> 6.00
CC(C)CC(=O)NCc1ccc(CC(=O)O)c(OCc2cc(-c3cccc(CN)c3)c3occc3c2)c1 [Compound 28c, 2-(2-((7-(3-(aminomethyl)phenyl)benzofuran-5-yl)methoxy)-4-((3-methylbutanamido)methyl)phenyl)acetic acid]	> 6.00
CCOC(=O)NCc1ccc(CC(=O)O)c(OCc2cc(-c3cccc(CN)c3)c3occc3c2)c1 [Compound 29c, 2-(2-((7-(3-(aminomethyl)phenyl)benzofuran-5-yl)methoxy)-4-((ethoxycarbonylamino)methyl)phenyl)acetic acid]	> 6.00
CC(=O)NCc1ccc(CC(=O)O)c(OCc2cc(-c3cccc(CN)c3)c3occc3c2)c1 [Compound 30c, 2-(4-(acetamidomethyl)-2-((7-(3-(aminomethyl)phenyl)benzofuran-5-yl)methoxy)phenyl)acetic acid]	> 6.00
NCc1cccc(-c2cc(COc3cc(CN)ccc3CC(=O)O)cc3c(C(F)(F)F)coc23)c1 [Compound 31d, 2-(4-(aminomethyl)-2-((7-(3-(aminomethyl)phenyl)-3-(trifluoromethyl)benzofuran-5-yl)methoxy)phenyl)acetic acid]	> 6.00
CCOP(=O)(NCc1ccc(CC(=O)O)c(OCc2cc(-c3cccc(CN)c3)c3occc3c2)c1)OCC [Compound 32c, 2-(2-((7-(3-(aminomethyl)phenyl)benzofuran-5-yl)methoxy)-4-((diethoxyphosphorylamino)methyl)phenyl)acetic acid]	> 6.00
CS(=O)(=O)NCc1ccc(CC(=O)O)c(OCc2cc(-c3cccc(CN)c3)c3occc3c2)c1 [Compound 33c, 2-(2-((7-(3-(aminomethyl)phenyl)benzofuran-5-yl)methoxy)-4-(methylsulfonamidomethyl)phenyl)acetic acid]	> 6.00
NCc1cccc(-c2cc(COc3cc(CNP(=O)(OCc4ccccc4)OCc4ccccc4)ccc3CC(=O)O)cc3ccoc23)c1 [Compound 34c, 2-(2-((7-(3-(aminomethyl)phenyl)benzofuran-5-yl)methoxy)-4-((bis(benzyloxy)phosphorylamino)methyl)phenyl)acetic acid]	> 6.00
NCc1cccc(-c2cc(C(Oc3ccccc3CC(=O)O)C(=O)O)cc3ccoc23)c1 (centres unmarked) [Compound 35e, 2-(7-(3-(aminomethyl)phenyl)benzofuran-5-yl)-2-(2-(carboxymethyl)phenoxy)acetic acid]	> 6.00
O=CNCc1nccc(-c2cc(COc3ccccc3CC(=O)O)cc3ccoc23)c1F [Compound 36f, 2-(2-((7-(3-fluoro-2-(formamidomethyl)pyridin-4-yl)benzofuran-5-yl)methoxy)phenyl)acetic acid]	> 6.00
CCNCc1nccc(-c2cc(COc3ccccc3CC(=O)O)cc3ccoc23)c1F [Compound 37d, 2-(2-((7-(2-((ethylamino)methyl)-3-fluoropyridin-4-yl)benzofuran-5-yl)methoxy)phenyl)acetic acid]	> 6.00
CCC(C(=O)O)c1ccccc1OCc1cc(-c2ccnc(CN)c2F)c2occc2c1 (centres unmarked) [Compound 38c, 2-(2-((7-(2-(aminomethyl)-3-fluoropyridin-4-yl)benzofuran-5-yl)methoxy)phenyl)butanoic acid]	> 6.00
CC(C)(C)OC(=O)Cc1ccccc1OCc1cc(-c2ccnc(CN)c2F)c2occc2c1 [Compound 39e, tert-butyl 2-(2-((7-(2-(aminomethyl)-3-fluoropyridin-4-yl)benzofuran-5-yl)methoxy)phenyl)acetate]	5.00 to 6.00
NCc1nccc(-c2cc(COc3ccccc3CC(=O)O)cc3c2OCC3)c1F [Compound 40g, 2-(2-((7-(2-(aminomethyl)-3-fluoropyridin-4-yl)-2,3-dihydrobenzofuran-5-yl)methoxy)phenyl)acetic acid]	> 6.00
NC(CC(F)(F)F)c1cccc(-c2cc(COc3ccccc3CC(=O)O)cc3ccoc23)c1 (centres unmarked) [Compound 41e, 2-(2-((7-(3-(1-amino-3,3,3-trifluoropropyl)phenyl)benzofuran-5-yl)methoxy)phenyl)acetic acid]	5.00 to 6.00
COc1ccc(CC(=O)O)c(OCc2cc(-c3cccc(CN)c3F)c3occc3c2F)c1 [Compound 42e, 2-(2-((7-(3-(aminomethyl)-2-fluorophenyl)-4-fluorobenzofuran-5-yl)methoxy)-4-methoxyphenyl)acetic acid]	> 6.00
COc1ccc(CC(=O)O)c(OCc2cc(-c3ccnc(CN)c3)c3occc3c2F)c1 [Compound 43d, 2-(2-((7-(2-(aminomethyl)pyridin-4-yl)-4-fluorobenzofuran-5-yl)methoxy)-4-methoxyphenyl)acetic acid]	> 6.00
